{"source": "PubChem BioAssay (NCI)", "test_in_all_cases": "growth of human tumour cells (NCI), 48 h", "key": {"CCRF-CEM leukemia": {"test_system": "CCRF-CEM leukemia"}, "OVCAR-4 ovarian": {"test_system": "OVCAR-4 ovarian"}, "MDA-MB-231 breast": {"test_system": "MDA-MB-231 breast"}, "SK-OV-3 ovarian": {"test_system": "SK-OV-3 ovarian"}, "HL-60(TB) leukemia": {"test_system": "HL-60(TB) leukemia"}, "NCI-H522 lung": {"test_system": "NCI-H522 lung"}, "SN12C renal": {"test_system": "SN12C renal"}, "NCI-H460 lung": {"test_system": "NCI-H460 lung"}, "MDA-N": {"test_system": "MDA-N"}, "IGROV1 ovarian": {"test_system": "IGROV1 ovarian"}, "HS 578T breast": {"test_system": "HS 578T breast"}, "UACC-62 melanoma": {"test_system": "UACC-62 melanoma"}, "MALME-3M melanoma": {"test_system": "MALME-3M melanoma"}, "A498 renal": {"test_system": "A498 renal"}, "UACC-257 melanoma": {"test_system": "UACC-257 melanoma"}, "HCT-15 colon": {"test_system": "HCT-15 colon"}, "SR leukemia": {"test_system": "SR leukemia"}, "SK-MEL-28 melanoma": {"test_system": "SK-MEL-28 melanoma"}, "SK-MEL-5 melanoma": {"test_system": "SK-MEL-5 melanoma"}, "HT29 colon": {"test_system": "HT29 colon"}, "K-562 leukemia": {"test_system": "K-562 leukemia"}, "EKVX NSCLC": {"test_system": "EKVX NSCLC"}, "LOX IMVI melanoma": {"test_system": "LOX IMVI melanoma"}, "SF-268 CNS": {"test_system": "SF-268 CNS"}, "RPMI-8226 leukemia": {"test_system": "RPMI-8226 leukemia"}, "MOLT-4 leukemia": {"test_system": "MOLT-4 leukemia"}, "SNB-19 CNS": {"test_system": "SNB-19 CNS"}, "OVCAR-5 ovarian": {"test_system": "OVCAR-5 ovarian"}, "HOP-62 NSCLC": {"test_system": "HOP-62 NSCLC"}, "HCC-2998 colon": {"test_system": "HCC-2998 colon"}, "T-47D breast": {"test_system": "T-47D breast"}, "BT-549 breast": {"test_system": "BT-549 breast"}, "TK-10 renal": {"test_system": "TK-10 renal"}, "RXF 393 renal": {"test_system": "RXF 393 renal"}, "SW-620 colon": {"test_system": "SW-620 colon"}, "OVCAR-3 ovarian": {"test_system": "OVCAR-3 ovarian"}, "SF-539 CNS": {"test_system": "SF-539 CNS"}, "NCI-H23 lung": {"test_system": "NCI-H23 lung"}, "OVCAR-8 ovarian": {"test_system": "OVCAR-8 ovarian"}, "A549 NSCLC": {"test_system": "A549 NSCLC"}, "NCI-H226 lung": {"test_system": "NCI-H226 lung"}, "SF-295 CNS": {"test_system": "SF-295 CNS"}, "M14 melanoma": {"test_system": "M14 melanoma"}, "UO-31 renal": {"test_system": "UO-31 renal"}, "MCF7 breast": {"test_system": "MCF7 breast"}, "ACHN renal": {"test_system": "ACHN renal"}, "COLO 205 colon": {"test_system": "COLO 205 colon"}, "U251 CNS": {"test_system": "U251 CNS"}, "DU-145 prostate": {"test_system": "DU-145 prostate"}, "KM12 colon": {"test_system": "KM12 colon"}, "HOP-92 NSCLC": {"test_system": "HOP-92 NSCLC"}, "SK-MEL-2 melanoma": {"test_system": "SK-MEL-2 melanoma"}, "MDA-MB-435": {"test_system": "MDA-MB-435"}, "SNB-75 CNS": {"test_system": "SNB-75 CNS"}, "PC-3 prostate": {"test_system": "PC-3 prostate"}, "HCT-116 colon": {"test_system": "HCT-116 colon"}, "NCI/ADR-RES ovarian": {"test_system": "NCI/ADR-RES ovarian"}, "CAKI-1 renal": {"test_system": "CAKI-1 renal"}, "786-0 renal": {"test_system": "786-0 renal"}}, "note": "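Each compound was tested at five concentrations against cells in 96-well plates for 48 hours. At the TGI there is no net growth.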"}
{"molecule": "NCC(O)CNC(=O)c1ccc(-c2ccc(-c3ccc(C(=O)NCC(O)CN)cc3)o2)cc1", "note": "(centres undefined)", "values": [{"measurement": "TGI", "setting": "CCRF-CEM leukemia", "result": "> 100", "unit": "µM"}, {"measurement": "TGI", "setting": "OVCAR-4 ovarian", "result": "> 100", "unit": "µM"}, {"measurement": "TGI", "setting": "MDA-MB-231 breast", "result": 54.2, "unit": "µM"}, {"measurement": "TGI", "setting": "SK-OV-3 ovarian", "result": 58, "unit": "µM"}, {"measurement": "TGI", "setting": "HL-60(TB) leukemia", "result": "> 100", "unit": "µM"}, {"measurement": "TGI", "setting": "NCI-H522 lung", "result": "> 100", "unit": "µM"}, {"measurement": "TGI", "setting": "SN12C renal", "result": 68.9, "unit": "µM"}, {"measurement": "TGI", "setting": "NCI-H460 lung", "result": "> 100", "unit": "µM"}, {"measurement": "TGI", "setting": "MDA-N", "result": "> 100", "unit": "µM"}, {"measurement": "TGI", "setting": "IGROV1 ovarian", "result": "> 100", "unit": "µM"}, {"measurement": "TGI", "setting": "HS 578T breast", "result": 59.7, "unit": "µM"}, {"measurement": "TGI", "setting": "UACC-62 melanoma", "result": "> 100", "unit": "µM"}, {"measurement": "TGI", "setting": "MALME-3M melanoma", "result": 44.2, "unit": "µM"}, {"measurement": "TGI", "setting": "A498 renal", "result": 73.5, "unit": "µM"}, {"measurement": "TGI", "setting": "UACC-257 melanoma", "result": "> 100", "unit": "µM"}, {"measurement": "TGI", "setting": "HCT-15 colon", "result": "> 100", "unit": "µM"}, {"measurement": "TGI", "setting": "SR leukemia", "result": "> 100", "unit": "µM"}, {"measurement": "TGI", "setting": "SK-MEL-28 melanoma", "result": "> 100", "unit": "µM"}, {"measurement": "TGI", "setting": "SK-MEL-5 melanoma", "result": "> 100", "unit": "µM"}, {"measurement": "TGI", "setting": "HT29 colon", "result": "> 100", "unit": "µM"}, {"measurement": "TGI", "setting": "K-562 leukemia", "result": "> 100", "unit": "µM"}, {"measurement": "TGI", "setting": "EKVX NSCLC", "result": 70.3, "unit": "µM"}, {"measurement": "TGI", "setting": "LOX IMVI melanoma", "result": "> 100", "unit": "µM"}, {"measurement": "TGI", "setting": "SF-268 CNS", "result": 69.3, "unit": "µM"}, {"measurement": "TGI", "setting": "RPMI-8226 leukemia", "result": "> 100", "unit": "µM"}, {"measurement": "TGI", "setting": "MOLT-4 leukemia", "result": "> 100", "unit": "µM"}, {"measurement": "TGI", "setting": "SNB-19 CNS", "result": 46.2, "unit": "µM"}, {"measurement": "TGI", "setting": "OVCAR-5 ovarian", "result": "> 100", "unit": "µM"}, {"measurement": "TGI", "setting": "HOP-62 NSCLC", "result": 74.4, "unit": "µM"}, {"measurement": "TGI", "setting": "HCC-2998 colon", "result": 96.5, "unit": "µM"}, {"measurement": "TGI", "setting": "T-47D breast", "result": 92.6, "unit": "µM"}, {"measurement": "TGI", "setting": "BT-549 breast", "result": 88.5, "unit": "µM"}, {"measurement": "TGI", "setting": "TK-10 renal", "result": 38.9, "unit": "µM"}, {"measurement": "TGI", "setting": "RXF 393 renal", "result": 40.1, "unit": "µM"}, {"measurement": "TGI", "setting": "SW-620 colon", "result": "> 100", "unit": "µM"}, {"measurement": "TGI", "setting": "OVCAR-3 ovarian", "result": 46.5, "unit": "µM"}, {"measurement": "TGI", "setting": "SF-539 CNS", "result": 41.6, "unit": "µM"}, {"measurement": "TGI", "setting": "NCI-H23 lung", "result": "> 100", "unit": "µM"}, {"measurement": "TGI", "setting": "OVCAR-8 ovarian", "result": "> 100", "unit": "µM"}, {"measurement": "TGI", "setting": "A549 NSCLC", "result": "> 100", "unit": "µM"}, {"measurement": "TGI", "setting": "NCI-H226 lung", "result": 55.4, "unit": "µM"}, {"measurement": "TGI", "setting": "SF-295 CNS", "result": 56.6, "unit": "µM"}, {"measurement": "TGI", "setting": "M14 melanoma", "result": "> 100", "unit": "µM"}, {"measurement": "TGI", "setting": "UO-31 renal", "result": "> 100", "unit": "µM"}, {"measurement": "TGI", "setting": "MCF7 breast", "result": "> 100", "unit": "µM"}, {"measurement": "TGI", "setting": "ACHN renal", "result": "> 100", "unit": "µM"}, {"measurement": "TGI", "setting": "COLO 205 colon", "result": "> 100", "unit": "µM"}, {"measurement": "TGI", "setting": "U251 CNS", "result": 42.6, "unit": "µM"}, {"measurement": "TGI", "setting": "DU-145 prostate", "result": 50.6, "unit": "µM"}, {"measurement": "TGI", "setting": "KM12 colon", "result": "> 100", "unit": "µM"}, {"measurement": "TGI", "setting": "HOP-92 NSCLC", "result": 52.1, "unit": "µM"}, {"measurement": "TGI", "setting": "SK-MEL-2 melanoma", "result": "> 100", "unit": "µM"}, {"measurement": "TGI", "setting": "MDA-MB-435", "result": "> 100", "unit": "µM"}, {"measurement": "TGI", "setting": "SNB-75 CNS", "result": 49.5, "unit": "µM"}, {"measurement": "TGI", "setting": "PC-3 prostate", "result": 48.3, "unit": "µM"}, {"measurement": "TGI", "setting": "HCT-116 colon", "result": 52.4, "unit": "µM"}, {"measurement": "TGI", "setting": "NCI/ADR-RES ovarian", "result": "> 100", "unit": "µM"}, {"measurement": "TGI", "setting": "CAKI-1 renal", "result": "> 100", "unit": "µM"}, {"measurement": "TGI", "setting": "786-0 renal", "result": 48.5, "unit": "µM"}]}
